What follows are molecules tested against T1, complement factor B (Homo sapiens, UniProt P00751) (assay: Complement hemolytic activity assay (lysis of rabbit erythrocytes by normal human serum)). Settings: normal human serum in GVB0 buffer with 10 mM Mg-EGTA, 37° C., A415.
T1 construct: from tissue; host or cells: normal human serum from healthy volunteers
Format: cell-based
Procedure: 4. Complement Hemolytic Activity Assay
The hemolysis experiment was carried out by referring to the description in Xuan Yuan et al., Haematologica. […] Prior to the experiment, the optimal concentration of normal human serum (NHS) required to achieve 100% lysis of rabbit erythrocytes (REs) was obtained by titration testing. […] A GVB0 buffer containing 10 mM Mg-EGTA and containing NHS and RE but no test compound was used as a positive control group (100% lysis). A GVB0 buffer containing 10 mM Mg-EGTA and containing inactivated NHS (heated at 56° C. for 30 min or at 65° C. for 5 min) and RE but no test compound was used as a negative control group (0% lysis). The samples were centrifuged at 2000 g for 5 min, and the supernatant was collected. Absorbance at 415 nm (A415) was measured using a microplate reader (Molecular Devices, SpectraMax i3X). IC50 values were calculated from percent hemolysis as a function of test compound concentration by non-linear regression.

T1 sequence (P00751 26-764): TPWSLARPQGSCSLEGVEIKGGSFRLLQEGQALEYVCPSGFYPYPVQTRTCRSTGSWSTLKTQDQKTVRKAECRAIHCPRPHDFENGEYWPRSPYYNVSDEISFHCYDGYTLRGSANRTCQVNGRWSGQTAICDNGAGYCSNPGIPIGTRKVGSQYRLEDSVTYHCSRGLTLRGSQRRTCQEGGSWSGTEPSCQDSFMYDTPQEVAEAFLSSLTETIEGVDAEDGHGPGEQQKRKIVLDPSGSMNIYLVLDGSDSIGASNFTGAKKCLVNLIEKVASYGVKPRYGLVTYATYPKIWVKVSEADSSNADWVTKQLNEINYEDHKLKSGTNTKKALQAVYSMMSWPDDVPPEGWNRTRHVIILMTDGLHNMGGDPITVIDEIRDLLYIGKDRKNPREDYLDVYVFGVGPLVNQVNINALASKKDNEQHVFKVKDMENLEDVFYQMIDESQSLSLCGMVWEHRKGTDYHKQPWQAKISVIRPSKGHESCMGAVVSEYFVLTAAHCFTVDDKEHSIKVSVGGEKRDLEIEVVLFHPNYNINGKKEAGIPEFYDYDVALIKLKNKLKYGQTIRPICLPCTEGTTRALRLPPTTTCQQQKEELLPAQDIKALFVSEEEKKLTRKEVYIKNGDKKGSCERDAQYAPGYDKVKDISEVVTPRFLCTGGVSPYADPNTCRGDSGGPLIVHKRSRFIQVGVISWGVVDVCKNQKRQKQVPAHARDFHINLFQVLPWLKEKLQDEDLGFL

Row | SMILES | IC50
1 | CCO[C@H]1CCN(Cc2c(OC)cc(C)c3c2CCN3)[C@H](c2ccc(C(=O)O)cc2)C1 [Example 1] | 1500 nM
2 | CCO[C@H]1CCN(Cc2c(OC)cc(C)c3[nH]cnc23)[C@H](c2ccc(C(=O)O)cc2)C1 [Example 4] | 900 nM
3 | CCO[C@H]1CCN(Cc2c(OC)cc(C)c3[nH]ncc23)[C@H](c2ccc(C(=O)O)cc2)C1 [Example 5] | 1200 nM
4 | CCO[C@H]1CCN(Cc2c(OC)cc(C)c3[nH]nnc23)[C@H](c2ccc(C(=O)O)cc2)C1 [Example 6] | > 5000 nM
5 | CCO[C@H]1CCN(Cc2c(OC)cc(C)c3c2CCC3)[C@H](c2ccc(C(=O)O)cc2)C1 [Example 8] | > 5000 nM
6 | CCO[C@H]1CCN(Cc2c(OC)cc(C)c3occc23)[C@H](c2ccc(C(=O)O)cc2)C1 [Example 10] | 1300 nM
7 | CCO[C@H]1CCN(Cc2c(OC)cc(C(F)(F)F)c3[nH]ccc23)[C@H](c2ccc(C(=O)O)cc2)C1 [Example 11] | > 5000 nM
8 | CCO[C@H]1CCN(Cc2c(OC)cc(C#N)c3[nH]ccc23)[C@H](c2ccc(C(=O)O)cc2)C1 [Example 12] | > 5000 nM
9 | CCO[C@H]1CCN(Cc2c(OC)cc(C3CC3)c3[nH]ccc23)[C@H](c2ccc(C(=O)O)cc2)C1 [Example 13] | 1000 nM
10 | CCO[C@H]1CCN(Cc2c(OC)cc(C)c3ccccc23)[C@H](c2ccc(C(=O)O)cc2)C1 [Example 14] | > 5000 nM
11 | CCO[C@H]1CCN(Cc2c(C)cc(C)c3ccccc23)[C@H](c2ccc(C(=O)O)cc2)C1 [Example 15] | > 5000 nM
12 | CCO[C@H]1CCN(Cc2c(OC)cc(C)c3c2CCC(=O)N3)[C@H](c2ccc(C(=O)O)cc2)C1 [Example 16] | > 5000 nM

Source: patent publication US20230331710A1, “HETEROCYCLIC COMPOUND, PREPARATION METHOD AND USE THEREOF” (SHANGHAI MEIYUE BIOTECH DEVELOPMENT CO. LTD, priority 2020, published 2023)
